According to patent US7541020B2, “Aminoalkyl glucosaminide phosphate compounds and their use as adjuvants and immunoeffectors” (priority 1997, dated 2009):
Where “and” joins values, the source holds several entries; their conditions need not be identical. Equal entries are not always repeated. Where two headings read alike, the source gives them in different places.

Assays:
influenza A/HK/68 [1] = conditions: mouse, in vivo
influenza A/HK/68 [2] = conditions: mouse, in vivo; remark: listed apart in the source
[3] = tested on: hepatitis B surface antigen (HBsAg); test: Vaginal wash anti-HBsAg antibody after intranasal HBsAg + AGP-AF; type: in vivo, BALB/c mice; conditions: 10 days after the booster immunization; intranasal HBsAg + 10 μg AGP-AF
Source text: Vaginal samples were collected 10 days after the booster immunization and assayed for anti-HBsAg antibody.

[4] = tested on: hepatitis B surface antigen (HBsAg); test: Serum anti-HBsAg antibody titers after intranasal HBsAg + AGP-AF (ELISA); type: in vivo, BALB/c mice; conditions: for Anti HBsAg Titer^−1 IgG1 / Anti HBsAg Titer^−1 IgG2a: K = 10^3
[5] = tested on: Hepatitis B surface antigen; test: Randomized controlled clinical study of AgB/RC-210-04 versus AgB: seroprotection, seroconversion, anti-HBsAg titers; type: in vivo, human; conditions: healthy adults; RC-210-04 added to AgB
[6] = tested on: hepatitis B surface antigen (HBsAg); test: Anti-HBsAg antibody titer with AGP-SE (ELISA plates coated with HBsAg or p72 peptide); conditions: sera day 28 post 2°, 25 μg AGP-SE; for Anti-HBsAg Titer^−1 HBsAg IgG1 / Anti-HBsAg Titer^−1 HBsAg IgG2a: ELISA plates coated with HBsAg; for Anti-HBsAg Titer^−1 p72-Peptide IgG1 / Anti-HBsAg Titer^−1 p72-Peptide IgG2a: ELISA plates coated with p72 peptide
tetanus toxoid [7] = conditions: mouse, in vivo
ovalbumin = test: Stimulation of antiovalbumin antibody production; type: in vivo, BDF1 female mice; conditions: 50 μg AGP + 50 μg ovalbumin; second immunization day 21; bled 14 days after second injection
Experimental: BDF1 female mice (8 per group) were immunized with 0.2 ml of emulsions containing 50 μg of the AGPs +50 μg of ovalbumin. A second immunization was administered 21 days post primary. Each mouse was bled 14 days after the second injection.

[8] = tested on: hepatitis B surface antigen (HBsAg); conditions: for % Cytotoxicity (d16, post 2°): HBsAg + 10 μg AGP-AF intranasally; for % Cytotoxicity (d8, post 3°): intranasal HBsAg + 10 μg AGP-AF
influenza A/HK/68 [9] = tested on: influenza A/HK/68; design: species or system ICR mice; conditions: mouse, in vivo
tetanus toxoid [10] = conditions: mouse, in vivo, sc
[11] = Fever response in rabbits (pyrogenicity); type: in vivo; conditions: 10 ug/kg; cumulative rise ≥1.5 degree in three rabbits is considered pyrogenic
Experimental: The AGP compounds were also evaluated for their tendency to induce a fever response in rabbits. Each compound was formulated in 10% (v/v) ethanol/water solution at 100 mg/ml, then diluted with D5W to the desired concentration. The material was injected at 3 ml/kg body weight into 3 rabbits. The rise in core temperature of the rabbits was recorded.

influenza A/HK/68 [12] = type: in vivo, BALB/c mice; conditions: mouse, in vivo
[13] = tested on: hepatitis B surface antigen (HBsAg); test: Cytotoxic T-lymphocyte response to HBsAg with AGP in stable emulsion (AGP-SE); conditions: s.c. 2.0 μg HBsAg + 25 μg AGP/SE
E.G7 (OVA) cells = conditions: s.c. 25 μg OVA in AGP preparation, spleen cells 21 days later
[14] = day 22 post 2°, HBsAg + 10 μg AGP-AF intranasally
[15] = serum, day 21 post 3°, intranasal HBsAg + 10 μg AGP-AF

Substance: 2-[(R)-3-Hexanoyloxytetradecanoylamino]ethyl2-Deoxy-4-O-phosphono-3-O-[(R)-3-hexanoyloxytetradecanoyl]-2-[(R)-3-hexanoyloxytetradecanoylamino]-α-D-glucopyranoside Triethylammonium Salt [B31]
- Anti-influenza serum titers IgG (influenza A/HK/68 [1]): 3200
- Anti-influenza serum titers IgG1 (influenza A/HK/68 [1]): 1600
- Anti-influenza serum titers IgG2a (influenza A/HK/68 [1]): 400
- Anti-influenza serum titers IgG2b (influenza A/HK/68 [1]): 1600
- Protection (influenza A/HK/68 [1]): 70

Substance: 2-[(R)-3-Tetradecanoyloxytetradecanoylamino]ethyl 2-Deoxy-4-O-phosphono-3-O-[(R)-3-tetradecanoyoxytetradecanoyl]-2-[(R)-3-tetradecanoyoxytetradecanoylamino]-β-D-glucopyranoside Triethylammonium Salt [B19]
- Percent Survival (influenza A/HK/68 [2]): 50%
- Titer−1 IgG1 (influenza A/HK/68 [2]): 100
- Titer−1 IgG2a (influenza A/HK/68 [2]): 800
- Titer−1 IgG2b (influenza A/HK/68 [2]): 6400
- Titer−1 Total IgG (influenza A/HK/68 [2]): 12,800
- Vaginal Wash Anti-HBsAg Titer^−1 IgA [3]: 400
- Vaginal Wash Anti-HBsAg Titer^−1 IgG [3]: <50
- Anti HBsAg Titer^−1 IgA [4, 14]: 1,600
- Anti HBsAg Titer^−1 IgG1 [4, 14]: 500K
- Anti HBsAg Titer^−1 IgG2a [4, 14]: 64K
- Anti HBsAg Titer^−1 IgG1 [4, 15]: 2000K
- Anti HBsAg Titer^−1 IgG2a [4, 15]: 500K
- Anti HBsAg Titer^−1 IgA [4, 15]: 12,800
- antibody responses to Hepatitis B surface antigen (in words) [5]: faster and greater antibody responses
- Anti-HBsAg Titer^−1 HBsAg IgG1 [6]: 1024K
- Anti-HBsAg Titer^−1 HBsAg IgG2a [6]: 1024K
- Anti-HBsAg Titer^−1 p72-Peptide IgG1 [6]: 64K
- Anti-HBsAg Titer^−1 p72-Peptide IgG2a [6]: 128K
- Anti-Tetanus Toxoid Titer^−1 Fecal Extract IgA (tetanus toxoid [7]): 3200 and 6400
- Anti-Tetanus Toxoid Titer^−1 Fecal Extract IgG (tetanus toxoid [7]): 25
- Anti-Tetanus Toxoid Titer^−1 Serum Pools IgG1 (tetanus toxoid [7]): 2M and 4M
- Anti-Tetanus Toxoid Titer^−1 Vaginal Wash IgA (tetanus toxoid [7]): 1600 and 3200
- Anti-Tetanus Toxoid Titer^−1 Vaginal Wash IgG (tetanus toxoid [7]): 200 and 400

Substance: N-[(R)-3-Decanoyloxytetradecanoyl]-O-[2-deoxy-4-O-phosphono-2-[(R)-3-decanoyloxytetradecanoylamino]-3-O-[(R)-3-decanoyloxytetradecanoyl]-β-D-glucopyranosyl]-L-serinamide Triethylammonium Salt [B25]
- Vaginal Wash Anti-HBsAg Titer^−1 IgA [3]: 800
- Vaginal Wash Anti-HBsAg Titer^−1 IgG [3]: 100
- Anti HBsAg Titer^−1 IgA [4, 14]: 3,200
- Anti HBsAg Titer^−1 IgG1 [4, 14]: 256K#
- Anti HBsAg Titer^−1 IgG2a [4, 14]: 500K
- Anti HBsAg Titer^−1 IgG1 [4, 15]: 1000K#
- Anti HBsAg Titer^−1 IgG2a [4, 15]: 1000K
- Anti HBsAg Titer^−1 IgA [4, 15]: 25,600
- Anti-ovalbumin IgG1 T/C (ovalbumin): 5.2
- Anti-ovalbumin IgG1 Titer (ovalbumin): 8500
- Anti-ovalbumin IgG2a T/C (ovalbumin): 0.5
- Anti-ovalbumin IgG2a Titer (ovalbumin): 163
- Anti-ovalbumin IgG2b T/C (ovalbumin): 5.0
- Anti-ovalbumin IgG2b Titer (ovalbumin): 1188
- Anti-ovalbumin IgM T/C (ovalbumin): 0.8
- Anti-ovalbumin IgM Titer (ovalbumin): 150
- Anti-ovalbumin Total Ig T/C (ovalbumin): 1.9
- Anti-ovalbumin Total Ig Titer (ovalbumin): 438
- % Cytotoxicity (d16, post 2°) ([8]; E/T 6.25:1): 9%
- % Cytotoxicity (d8, post 3°) ([8]; E/T 6.25:1): 8%
- % Cytotoxicity (d16, post 2°) ([8]; E/T 12.5:1): 13%
- % Cytotoxicity (d8, post 3°) ([8]; E/T 12.5:1): 13%
- % Cytotoxicity (d16, post 2°) ([8]; E/T 25:1): 20%
- % Cytotoxicity (d8, post 3°) ([8]; E/T 25:1): 19%
- % Cytotoxicity (d16, post 2°) ([8]; E/T 50:1): 36%
- % Cytotoxicity (d8, post 3°) ([8]; E/T 50:1): 30%
- Percent Protection (influenza A/HK/68 [9]): 100%
- Serum Titers IgG1 (influenza A/HK/68 [9]): 102,400
- Serum Titers IgG2a (influenza A/HK/68 [9]): 819,200
- Serum Titers IgG2b (influenza A/HK/68 [9]): ≧819,200
- Serum Titers Total IgG (influenza A/HK/68 [9]): ≧819,200
- Vaginal Wash Samples IgA Secondary (influenza A/HK/68 [9]): 1280
- Vaginal Wash Samples IgA Tertiary (influenza A/HK/68 [9]): 1280
- Vaginal Wash Samples IgG Secondary (influenza A/HK/68 [9]): 640
- Vaginal Wash Samples IgG Tertiary (influenza A/HK/68 [9]): 2560
- Anti-tetanus toxoid IgG1 T/C (tetanus toxoid [10]): 2.68
- Anti-tetanus toxoid IgG1 Titer (tetanus toxoid [10]): 576,000
- Anti-tetanus toxoid IgG2a T/C (tetanus toxoid [10]): 1.67
- Anti-tetanus toxoid IgG2a Titer (tetanus toxoid [10]): 8,500
- Anti-tetanus toxoid IgG2b T/C (tetanus toxoid [10]): 3.28
- Anti-tetanus toxoid IgG2b Titer (tetanus toxoid [10]): 94,400
- Anti-tetanus toxoid IgM T/C (tetanus toxoid [10]): 2.0
- Anti-tetanus toxoid IgM Titer (tetanus toxoid [10]): 3,200
- Anti-tetanus toxoid Total IgG T/C (tetanus toxoid [10]): 8.93
- Anti-tetanus toxoid Total IgG Titer (tetanus toxoid [10]): 57,600
- Anti-HBsAg Titer^−1 HBsAg IgG1 [6]: 2048K*
- Anti-HBsAg Titer^−1 HBsAg IgG2a [6]: 2048K
- Anti-HBsAg Titer^−1 p72-Peptide IgG1 [6]: 128K
- Anti-HBsAg Titer^−1 p72-Peptide IgG2a [6]: 64K
- Anti-Tetanus Toxoid Titer^−1 Fecal Extract IgA (tetanus toxoid [7]): 3200 and 6400
- Anti-Tetanus Toxoid Titer^−1 Vaginal Wash IgA (tetanus toxoid [7]): 6400
- PYROGENICITY Total Rise ° C., 3 rabbits [11]: 4.2 °C
- Anti-influenza Titer^−1 IgG1 (influenza A/HK/68 [12]): 1600
- Anti-influenza Titer^−1 IgG2a (influenza A/HK/68 [12]): 6400
- Anti-influenza Titer^−1 IgG2b (influenza A/HK/68 [12]): 1600
- Anti-influenza Titer^−1 Total IgG (influenza A/HK/68 [12]): 3200
- Percent Survival (influenza A/HK/68 [12]): 100%
- % Cytotoxicity ([13]; d16, post 2°, E:T 6.25:1): 13%
- % Cytotoxicity ([13]; d16, post 2°, E:T 12.5:1): 20%
- % Cytotoxicity ([13]; d16, post 2°, E:T 25:1): 28%
- % Cytotoxicity ([13]; d16, post 2°, E:T 50:1): 49%
- % Cytotoxicity ([13]; d17, post 1°, E:T 6.25:1): 5%
- % Cytotoxicity ([13]; d17, post 1°, E:T 12.5:1): 9%
- % Cytotoxicity ([13]; d17, post 1°, E:T 25:1): 12%
- % Cytotoxicity ([13]; d17, post 1°, E:T 50:1): 27%
- % Cytotoxicity (E.G7 (OVA) cells; E:T 12.5:1): 43%
- % Cytotoxicity (E.G7 (OVA) cells; E:T 25:1): 55%
- % Cytotoxicity (E.G7 (OVA) cells; E:T 50:1): 65%
